{"source": "ChEMBL document CHEMBL3352318", "about": "“MDN-0104, an antiplasmodial betaine lipid from Heterospora chenopodii” (J Nat Prod, 2014)", "system": "Plasmodium falciparum", "test": "Antiplasmodial activity against Plasmodium falciparum 3D7 late ring stages and early trophozoites forms infected in human erythrocytes assessed as parasite growth inhibition by LDH release assay", "assay_type": "functional, organism-based"}
{"smiles": "CCCCCCCCCCC/C=C(\\C)C(=O)C(C)(C)C(=O)OC[C@@H](O)COCC[C@@H](C(=O)[O-])[N+](C)(C)C", "values": [{"measurement": "IC50", "value": 7, "unit": "µM"}]}
